# Assay results as given in patent publication US10287234B2, “Triglyceride and use thereof” (NITTO PHARMACEUTICAL INDUSTRIES, LTD., priority 2015, dated 2019).
# Assay: State (liquid or solid) at standard temperature by visual observation
# Format: physicochemical
# Protocol: Whether compounds (I) of the present invention of Examples 1-3, trilinolein of Comparative Example 1 and HYA of Comparative Example 2 are liquid or solid at standard temperature (about 20° C.) was confirmed by visual observation.
row,Molecule,State at standard temperature (about 20° C.)
1,"CCCCC/C=C\C/C=C\CCCCCCCC(=O)OCC(COC(=O)CCCCCCCCC(O)C/C=C\CCCCC)OC(=O)CCCCCCC/C=C\C/C=C\CCCCC (stereo not drawn) [Ex. 1, Di(cis, cis-9,12-octadecadienoyl)(10-hydroxy-cis-12-octadecenoyl)glycerol]",liquid
2,"CCCCC/C=C\C/C=C\CCCCCCCC(=O)OC(COC(=O)CCCCCCCCC(O)C/C=C\CCCCC)COC(=O)CCCCCCCCC(O)C/C=C\CCCCC (stereo not drawn) [Ex. 2, Di(10-hydroxy-cis-12-octadecenoyl)(cis, cis-9,12-octadecadienoyl)glycerol]",liquid
3,"CCCCC/C=C\C/C=C\CCCCCCCC(=O)OCC(COC(=O)CCCCCCC/C=C\C/C=C\CCCCC)OC(=O)CCCCCCC/C=C\C/C=C\CCCCC [compound 1, Trilinolein, reference compound]",liquid
4,"CCCCC/C=C\CC(O)CCCCCCCCC(=O)O (stereo not drawn) [compound 2, 10-Hydroxy-cis-12-octadecenoic Acid, reference compound]",solid
5,Tri(10-hydroxy-cis-12-octadecenoyl)glycerol [Ex. 3],liquid
